According to patent US7998978B2 (Pfizer Inc., priority 2006, dated 2011):
pKi: −log10 of the molar value.

Molecular target: T1, JNK1α1 (Homo sapiens, UniProt P45983)
T1 construct: catalytic domain containing amino acids 1-364 and N-terminal hexahistidine tag; hexahistidine (His6) (N); made in house; host or cells: E. coli BL21 (DE3)
Experiment: Coupled spectrophotometric (PK/LDH) JNK1α1 assay: % inhibition and Ki determination
Type: biochemical
Details: @1 uM; read-out: % Inhibition JNK-1
Method in brief: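 Initial rates were taken from the absorbance decrease at 340 nm at 30° C. Ki was fitted with a tight-binding model over 11 concentrations (top 100 μM); single-point inhibition was tested at 1 or 10 μM.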

T1 sequence (P45983 1-364): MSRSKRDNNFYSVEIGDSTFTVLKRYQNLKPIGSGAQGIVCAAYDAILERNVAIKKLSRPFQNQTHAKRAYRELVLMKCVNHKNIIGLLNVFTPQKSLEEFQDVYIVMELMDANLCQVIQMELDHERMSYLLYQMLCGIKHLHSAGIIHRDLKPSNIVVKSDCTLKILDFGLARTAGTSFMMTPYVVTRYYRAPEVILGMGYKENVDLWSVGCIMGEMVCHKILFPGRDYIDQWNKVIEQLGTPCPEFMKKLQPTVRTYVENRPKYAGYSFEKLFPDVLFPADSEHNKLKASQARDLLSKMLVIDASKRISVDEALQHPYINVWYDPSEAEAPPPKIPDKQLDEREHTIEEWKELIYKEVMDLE

Row | inhibition at 1 µM [%] | SMILES
1 | 19 | CCn1ncnc1NC(=O)c1cccc2cnc(N[C@H]3CC[C@H](O)CC3)nc12 [Example 320, N-(1-ethyl-1H-1,2,4-triazol-5-yl)-2-[(trans-4-hydroxycyclohexyl)amino]quinazoline-8-carboxamide]
2 | 39 | CC(C)c1ncc(NC(=O)c2cccc3cnc(N[C@H]4CC[C@H](O)CC4)nc23)cn1 [Example 321, 2-[(trans-4-hydroxycyclohexyl)amino]-N-(2-isopropylpyrimidin-5-yl)quinazoline-8-carboxamide]
3 | 18 | Cc1cc(NC(=O)c2cccc3cnc(N[C@H]4CC[C@H](O)CC4)nc23)nc(C)n1 [Example 322, N-(2,6-dimethylpyrimidin-4-yl)-2-[(trans-4-hydroxycyclohexyl)amino]quinazoline-8-carboxamide]
4 | 42 | Cc1nnc(NC(=O)c2cccc3cnc(N[C@H]4CC[C@H](O)CC4)nc23)o1 [Example 323, 2-[(trans-4-hydroxycyclohexyl)amino]-N-(5-methyl-1,3,4-oxadiazol-2-yl)quinazoline-8-carboxamide]
5 | 9 | Cc1cc(NC(=O)c2cccc3cnc(N[C@H]4CC[C@H](O)CC4)nc23)n(-c2ccccn2)n1 [Example 325, 2-[(trans-4-hydroxycyclohexyl)amino]-N-(3-methyl-1-pyridin-2-yl-1H-pyrazol-5-yl)quinazoline-8-carboxamide]

Same assay, conditions: @10 uM; read-out: % Inhibition JNK-1

Row | inhibition at 10 µM [%] | SMILES
6 | 26 | O=C(Nc1cccnc1N1CCOCC1)c1cccc2cnc(N[C@H]3CC[C@H](O)CC3)nc12 [Example 324, 2-[(trans-4-hydroxycyclohexyl)amino]-N-(2-morpholin-4-ylpyridin-3-yl)quinazoline-8-carboxamide]

Same assay, conditions: JNK-1

Row | pKi | SMILES
7 | 6.71 | O=C(NC(CO)c1ccccc1)c1ccc2cnc(N[C@H]3CC[C@H](O)CC3)nc2c1 (stereo partly drawn) [Example 326, 2-{(trans-4-hydroxycyclohexyl)amino]-N-(2-hydroxy-1-phenylethyl)quinazoline-7-carboxamide]
8 | 6.60 | O=C(NCC1(O)CCCCC1)c1ccc2cnc(N[C@H]3CC[C@H](O)CC3)nc2c1 [Example 327, 2-[(trans-4-hydroxycyclohexyl)amino]-N-[(1-hydroxycyclohexyl)methyl]quinazoline-7-carboxamide]
9 | 6.59 | O=C(N[C@H]1CC[C@H](O)CC1)c1ccc2cnc(N[C@H]3CC[C@H](O)CC3)nc2c1 [Example 328, N-(trans-4-hydroxycyclohexyl)2[(trans-4-hydroxycyclohexyl)amino]quinazoline-7-carboxamide]
10 | 6.45 | O=C(Nc1ccccn1)c1ccc2cnc(N[C@H]3CC[C@H](O)CC3)nc2c1 [Example 330, 2-[(trans-4-hydroxycyclohexyl)amino]-N-pyridin-2-ylquinazoline-7-carboxamide]
11 | 6.39 | CN(C)c1ncccc1NC(=O)c1ccc2cnc(N[C@H]3CC[C@H](O)CC3)nc2c1 [Example 331, N-[2-(dimethylamino)pyridin-3-yl]-2-[(trans-4-hydroxycyclohexyl)amino]quinazoline-7-carboxamide]
12 | 6.37 | CCCC(CO)NC(=O)c1ccc2cnc(N[C@H]3CC[C@H](O)CC3)nc2c1 (stereo partly drawn) [Example 332, 2-[(trans-4-hydroxycyclohexyl)amino]-N-[1-(hydroxymethyl)butyl]quinazoline-7-carboxamide]
13 | 6.34 | CCn1ccnc1CNC(=O)c1ccc2cnc(N[C@H]3CC[C@H](O)CC3)nc2c1 [Example 333, N-[(1-ethyl-1H-imidazol-2-yl)methyl]-2-([trans-4-hydroxycyclohexyl)amino]quinazoline-7-carboxamide]
14 | 6.32 | CC[C@@H](CO)NC(=O)c1ccc2cnc(N[C@H]3CC[C@H](O)CC3)nc2c1 [Example 334, 2-[(trans-4-hydroxycyclohexyl)amino]-N-[(1S)-1-(hydroxymethyl)propyl]quinazoline-7-carboxamide]
15 | 6.32 | CC1(CNC(=O)c2ccc3cnc(N[C@H]4CC[C@H](O)CC4)nc3c2)COC1 [Example 335, 2-[(trans-4-hydroxycyclohexyl)amino]-N-[(3-methyloxetan-3-yl)methyl]quinazoline-7-carboxamide]
16 | 6.29 | O=C(N[C@H]1CC[C@@H](CO)CC1)c1ccc2cnc(N[C@H]3CC[C@H](O)CC3)nc2c1 [Example 336, 2-[(trans-4-hydroxycyclohexyl)amino]-N-[cis-4-(hydroxymethyl)cyclohexyl]quinazoline-7-carboxamide]
17 | 6.25 | O=C(N[C@@H](CO)c1ccccc1)c1ccc2cnc(N[C@H]3CC[C@H](O)CC3)nc2c1 [Example 337, 2-[(trans-4-hydroxycyclohexyl)amino]-N-[(1R)-2-hydroxy-1-phenylethyl]quinazoline-7-carboxamide]
18 | 6.20 | O=C(NCCCO)c1ccc2cnc(N[C@H]3CC[C@H](O)CC3)nc2c1 [Example 338, 2-[(trans-4-hydroxycyclohexyl)amino]-N-(3-hydroxypropyl)quinazoline-7-carboxamide]
19 | 6.10 | O=C(NCCCn1cccn1)c1ccc2cnc(N[C@H]3CC[C@H](O)CC3)nc2c1 [Example 339, 2-[(trans-4-hydroxycyclohexyl)amino]-N-[3-(1H-pyrazol-1-yl)propyl]quinazolin-7-carboxamide]
20 | 6.08 | O=C(NCC1CCCO1)c1ccc2cnc(N[C@H]3CC[C@H](O)CC3)nc2c1 (stereo partly drawn) [Example 340, 2-[(trans-4-hydroxycyclohexyl)amino]-N-(tetrahydrofuran-2-ylmethyl)quinazoline-7-carboxamide]
21 | 6.08 | O=C(NCC1(O)CCC1)c1ccc2cnc(N[C@H]3CC[C@H](O)CC3)nc2c1 [Example 341, N-[(1-hydroxycyclobutyl)methyl]-2-[(trans-4-hydroxycyclohexyl)amino]quinazoline-7-carboxamide]
22 | 6.08 | O=C(NC1CCCCC1O)c1ccc2cnc(N[C@H]3CC[C@H](O)CC3)nc2c1 (stereo partly drawn) [Example 342, N-(2-hydroxycyclohexyl)-2-[(trans-4-hydroxycyclohexyl)amino]quinazoline-7-carboxamide]

Row | pKi | SMILES
23 | 6.07 | O=C(NCCC1CCCCO1)c1ccc2cnc(N[C@H]3CC[C@H](O)CC3)nc2c1 (stereo partly drawn) [Example 343, 2-[(trans-4-hydroxycyclohexyl)amino]-N-[2-(tetrahydro-2H-pyran-2-yl)ethyl]quinazoline-7-carboxamide]
24 | 6.06 | O=C(NC1CCS(=O)(=O)C1)c1ccc2cnc(N[C@H]3CC[C@H](O)CC3)nc2c1 (stereo partly drawn) [Example 344, N-(1,1-dioxidotetrahydro-3-thienyl)-2-[(trans-4-hydroxycyclohexyl)amino]quinazoline-7-7-carboxamide]
25 | 6.05 | O=C(N[C@H]1CC[C@H](CO)CC1)c1ccc2cnc(N[C@H]3CC[C@H](O)CC3)nc2c1 [Example 345, 2-[(trans-4-hydroxycyclohexyl)amino]-N-[trans-4-(hydroxymethyl)cyclohexyl]quinazoline-7-carboxamide]
26 | 6.02 | O=C(NCCO)c1ccc2cnc(N[C@H]3CC[C@H](O)CC3)nc2c1 [Example 346, 2-[(trans-4-hydroxycyclohexyl)amino]-N-(2-hydroxyethyl)quinazoline-7-carboxamide]
27 | 6.02 | O=C(NC1CCOC1)c1ccc2cnc(N[C@H]3CC[C@H](O)CC3)nc2c1 (stereo partly drawn) [Example 347, 2-[(trans-4-hydroxycyclohexyl)amino]-N-(tetrahydrofuran-3-yl)quinazoline-7-carboxamide]
28 | 6.01 | O=C(NCC1CCCCO1)c1ccc2cnc(N[C@H]3CC[C@H](O)CC3)nc2c1 (stereo partly drawn) [Example 348, 2-[(trans-4-hydroxycyclohexyl)amino]-N-(tetrahydro-2H-pyran-2-ylmethyl)quinazoline-7-carboxamide]
29 | 6.00 | COc1ccc(NC(=O)c2ccc3cnc(N[C@H]4CC[C@H](O)CC4)nc3c2)cn1 [Example 349, 2-[(trans-4-hydroxycyclohexyl)amino]-N-(6-methoxypyridin-3-yl)quinazoline-7-carboxamide]
30 | 5.98 | O=C(NC[C@H]1C[C@@H]1CO)c1ccc2cnc(N[C@H]3CC[C@H](O)CC3)nc2c1 [Example 350, 2-[(trans-4-hydroxycyclohexyl)amino]-N-{[(1S,2S)-2-(hydroxymethyl)cyclopropyl]methyl} quinazoline-7-carboxamide]
31 | 5.97 | CC(O)CNC(=O)c1ccc2cnc(N[C@H]3CC[C@H](O)CC3)nc2c1 (stereo partly drawn) [Example 351, 2-[(trans-4-hydroxycyclohexyl)amino]-N-(2-hydroxypropyl)quinazoline-7-carboxamide]
32 | 5.96 | CC(C)(CO)NC(=O)c1ccc2cnc(N[C@H]3CC[C@H](O)CC3)nc2c1 [Example 352, 2-[(trans-4-hydroxycyclohexyl)amino]-N-(2-hydroxy-1,1-dimethylethyl)quinazoline-7-carboxamide]
33 | 5.93 | O=C(NC1CCCOC1)c1ccc2cnc(N[C@H]3CC[C@H](O)CC3)nc2c1 (stereo partly drawn) [Example 353, 2-[(trans-4-hydroxycyclohexyl)amino]-N-(tetrahydro-2H-pyran-3-yl)quinazoline-7-carboxamide]
34 | 5.91 | O=C(NCc1nc2cc(F)ccc2[nH]1)c1ccc2cnc(N[C@H]3CC[C@H](O)CC3)nc2c1 [Example 354, N-[(5-fluoro-1H-benzimidazol-2-yl)methyl]-2-[(trans-4-hydroxycyclohexyl)amino]quinazoline-7-carboxamide]
35 | 5.86 | Cc1nnc(CNC(=O)c2ccc3cnc(N[C@H]4CC[C@H](O)CC4)nc3c2)o1 [Example 355, 2-[(trans-4-hydroxycyclohexyl)amino]-N-[(5-methyl-1,3,4-oxadiazol-2-yl)methyl]quinazoline-7-carboxamide]
36 | 5.83 | CCn1cc(CNC(=O)c2ccc3cnc(N[C@H]4CC[C@H](O)CC4)nc3c2)cn1 [Example 356, N-[(1-ethyl-1H-pyrazol-4-yl)methyl]-2-[(trans-4-hydroxycyclohexyl)amino]quinazoline-7-carboxamide]
37 | 5.77 | Cn1ncc(NC(=O)c2ccc3cnc(N[C@H]4CC[C@H](O)CC4)nc3c2)n1 [Example 358, 2-[(trans-4-hydroxycyclohexyl)amino]-N-(2-methyl-2H-1,2,3-triazol-4-yl)quinazoline-7-carboxamide]
